Test results published in patent publication US20100048728A1, “POLYCYCLIC DIANTHRAQUINONES AS INHIBITORS OF INFLAMMATORY CYTOKINES” (HY BIOPHARMA INC., priority 2006, published 2010).

Key:
Mouse L cells [1] = assay: Protection from TNFα-induced cell death, Hemacolor assay; format: cell-based
Protocol: Mouse L cells (ATCC) were cultured in complete MEM medium in 37° C. incubator with 5% CO2 and 95% humidity. The culture cells were divided to 6 separate groups: i. untreated control ii. TNFα25 u/ml iii. TNFα25 u/ml and Hypericin 0.5 μg/ml iv. TNFα25 u/ml and Hypericin 1 μg/ml v. TNFα25 u/ml and Hypericin 5 μg/ml vi. TNFα 25 u/ml and Hypericin 7.5 μg/ml.
Hypericin was applied to the cells 48 hr prior to TNFα administration. The experiment was terminated 24 hrs after TNF administration and cell viability evaluated using the Hemacolor assay.

[2] = tested on: Herpes simplex type 1 virus induced skin inflammation; assay: Inflammatory skin reactions induced by Herpes simplex type 1 virus in guinea pig dorsa; conditions: topical 1.2 or 1.7 μg Hypericin/gr Vaseline, 3× per day for 3 days, evaluated after 96 hrs
[3] = tested on: acute IBD generated in BALB/C mice by DSS; assay: DSS-induced acute inflammatory bowel disease (IBD) in mice, colon length; format: in vivo
Protocol: 36 male BABL/c mice anesthetized with Ketamine & Xylazine, are divided into six groups: • Control • Dextran sulfate sodium salt (DSS) alone −8000 MW • DSS with Hypericin 25 μg/animal • DSS with Hypericin 75 μg/animal • Hypericin 25 μg/animal • Hypericin 75 μg/animal
Acute IBD was generated in BALB/C mice (6 mice per group) by DSS administered via the drinking water (3.5% w/v) for 7 days. Hypericin was administered to these animals intraperitoneally at doses of 25 and 75 μg/mouse beginning 48 hrs prior to initiation of DSS administration and at 48 hr intervals thereafter. After 16 days the mice were sacrificed with high dose of sodium pentobarbital, the gastro-intestinal tract removed, its overall length measured and evaluated compared to control untreated healthy mice.

Mouse L cells [4] = assay: Protection from TNFα-induced cell death, MTT assay; format: cell-based
Protocol: Mouse L cells (ATCC) were cultured in complete MEM medium in 37° C. incubator with 5% CO2 and 95% humidity. The culture cells were divided to […]: i. untreated control ii. Hypericin 0.5 μg/ml iii. Hypericin 1 μg/ml iv. TNFα10 u/ml v. TNFα25 u/ml vi. TNFα10 u/ml and Hypericin 0.5 μg/ml vii. TNFα10 u/ml and Hypericin 1 μg/ml viii. TNFα 25 u/ml and Hypericin 0.5 μg/ml ix. TNFα25 u/ml and Hypericin 1 μg/ml.
Hypericin was applied to the cells 48 hr prior to TNFα administration. The experiment was terminated 24 hrs after TNF administration and cell viability evaluated by MTT assay.

For Cc1cc(O)c2c(=O)c3c(O)cc(O)c4c5c(O)cc(O)c6c(=O)c7c(O)cc(C)c8c1c2c(c34)c(c78)c65 [Hypericin, hypericin], the “prevention of TNFα induced cell death (Hemacolor)” value (from here on “prevention … (Hemacolor)”) (Mouse L cells [1]; Hypericin 0.5 μg/ml 48 hr before TNFα 25 u/ml, P≦0.0045) was “prevented cell death significantly”, the “prevention … (Hemacolor)” value (Mouse L cells [1]; Hypericin 1 μg/ml 48 hr before TNFα 25 u/ml, P≦0.00049) was “prevented cell death significantly” and the “prevention … (Hemacolor)” value (Mouse L cells [1]; Hypericin 5 μg/ml 48 hr before TNFα 25 u/ml, P≦0.00105) was “prevented cell death significantly”. For the same molecule, the “prevention … (Hemacolor)” value (Mouse L cells [1]; Hypericin 7.5 μg/ml 48 hr before TNFα 25 u/ml, P≦0.00159) was “prevented cell death significantly”, the “prevention … (Hemacolor)” value (Mouse L cells [1]; Hypericin 15 μg/ml before TNFα 25 u/ml) was “did not prevent cell death” and the “inflammatory erythema following infection with herpes virus” value [2] was “significantly inhibited”. The colon length ([3]; Hypericin 25 μg/mouse without DSS) was “did not alter the colon length”, the colon length ([3]; Hypericin 75 μg/mouse intraperitoneally with 3.5% DSS, after 16 days, DSS alone 8.016 cm, control 12.6 cm, P≦0.039 vs DSS alone) was 9.067 cm and the colon length ([3]; Hypericin 75 μg/mouse without DSS) was “did not alter the colon length”. For the same molecule, the “prevention of TNFα induced cell death (MTT)” value (shortened to “prevention … (MTT)”) (Mouse L cells [4]; Hypericin 0.5 μg/ml 48 hr before TNFα 10 u/ml, P≦0.025758) was “prevented cell death significantly”, the “prevention … (MTT)” value (Mouse L cells [4]; Hypericin 0.5 μg/ml 48 hr before TNFα 25 u/ml, P≦0.023446) was “prevented cell death significantly” and the “prevention … (MTT)” value (Mouse L cells [4]; Hypericin 1 μg/ml 48 hr before TNFα 10 u/ml, P≦0.014777) was “prevented cell death significantly”. For the same molecule, the “prevention … (MTT)” value (Mouse L cells [4]; Hypericin 1 μg/ml 48 hr before TNFα 25 u/ml, P≦0.047198) was “prevented cell death significantly” and the “cell viability (MTT)” value (Mouse L cells [4]; Hypericin alone, compared to the control group) was “did not alter cell viability”.
